Experimental data: US8586611B2 (priority 2005, dated 2013)
Where two headings read alike, the source gives them in different places.

Assays:
Format in all cases: in vivo
Plasmopara viticola = assay: Test B: grape downy mildew, spray 24 h after inoculation (disease rating, 100 = 100% disease control)
Text: (§1) The test compounds were first dissolved in acetone in an amount equal to 3% of the final volume and then suspended at the desired concentration (in ppm) in acetone and purified water (50/50 mix by volume) containing 250 ppm of the surfactant Trem® 014 (polyhydric alcohol esters). The resulting test suspensions were then used in tests A-E. Spraying a 200 ppm test suspension to the point of run-off on the test plants was the equivalent of a rate of 500 g/ha.
Grape seedlings were inoculated with a spore suspension of Plasmopara viticola (the causal agent of grape downy mildew) and incubated in a saturated atmosphere at 20° C. for 24 h. After a short drying period, the test suspension was sprayed to the point of run-off on the grape seedlings and then moved to a growth chamber at 20° C. for 5 days, after which the test units were placed back into a saturated atmosphere at 20° C. for 24 h. Upon removal, disease ratings were made.
(§2) Results for Tests A-F are given in Table A. In the table, a rating of 100 indicates 100% disease control and a rating of 0 indicates no disease control (relative to the controls). A dash (-) indicates no test results.

Phytophthora infestans [1] = assay: whole plant or invertebrate; conditions: for Test C disease rating (100 = 100% disease control, 0 = no disease control): tomato late blight
Phytophthora infestans [2] = assay: whole plant or invertebrate; conditions: for Test D disease rating (100 = 100% disease control, 0 = no disease control): tomato late blight
[3] = tested on: Erysiphe graminis f. sp. tritici; assay: Test E: wheat powdery mildew, spray the day before inoculation (disease rating, 100 = 100% disease control)
Text: as §1
The test suspension was sprayed to the point of run-off on wheat seedlings. The following day the seedlings were inoculated with a spore dust of Erysiphe graminis f. sp. tritici, (the causal agent of wheat powdery mildew) and incubated in a growth chamber at 20° C. for 7 days, after which disease ratings were made.
as §2

[4] = spray 24 h after inoculation, compounds without asterisk (not 40 or 10 ppm)
[5] = spray the day before inoculation, compounds without asterisk (not 40 or 10 ppm)
[6] = spray 17 h after inoculation, compounds without asterisk (not 40 or 10 ppm)
[7] = sprayed 24 h after inoculation, unmarked compounds (no asterisk, not 40 or 10 ppm)
[8] = sprayed the day before inoculation, unmarked compounds (no asterisk, not 40 or 10 ppm)
[9] = sprayed 17 h after inoculation, unmarked compounds (no asterisk, not 40 or 10 ppm)
[10] = sprayed the day before inoculation, 7 days at 20° C., unmarked compounds (no asterisk, not 40 or 10 ppm)
[11] = spray the day before inoculation, tested at 40 ppm
[12] = sprayed 24 h after inoculation, tested at 10 ppm (**)
[13] = sprayed the day before inoculation, tested at 10 ppm (**)
[14] = sprayed 17 h after inoculation, tested at 10 ppm (**)

SMILES	Test B disease rating (100 = 100% disease control, 0 = no disease control) (Plasmopara viticola; [4])	Test C disease rating (100 = 100% disease control, 0 = no disease control) (Phytophthora infestans [1]; [5])	Test E disease rating (100 = 100% disease control, 0 = no disease control) [3, 5]	Test B disease rating (100 = 100% disease control, 0 = no disease control) (Plasmopara viticola; [7])	Test C disease rating (100 = 100% disease control, 0 = no disease control) (Phytophthora infestans [1]; [8])	Test D disease rating (100 = 100% disease control, 0 = no disease control) (Phytophthora infestans [2]; [9])	other results
Cc1cc(C(F)(F)F)nn1CC(=O)N1CCC(c2nc(C(=O)N(C)C3CCC(C)c4ccccc43)cs2)CC1 (mixture of isomers) [compound 192]	97%	100%	0%				Test D disease rating (100 = 100% disease control, 0 = no disease control) (Phytophthora infestans [2]; [6]): 99%
Cc1cc(C(F)(F)F)nn1CC(=O)N1CCC(c2nc(C(=O)N(C)C3CCCC4CCCCC43)cs2)CC1 (mixture of isomers) [compound 254]				95	99	99	Test E disease rating (100 = 100% disease control, 0 = no disease control) [3, 10]: 0
Cc1cc(C(F)(F)F)nn1CC(=O)N1CCC(c2nc(C(=O)N(C)[C@@H]3CC[C@@H](O)c4ccccc43)cs2)CC1 (racemic) [Compound 206, N-methyl-2-[1-[[5-methyl-3-(trifluoromethyl)-1H-pyrazol-1-yl]acetyl]-4-piperidinyl]-N-[(1R,4R)-1,2,3,4-tetrahydro-4-hydroxy-1-naphthalenyl]-4-thiazolecarboxamide]							pest or weed control at 40 ppm (Plasmopara viticola; Plasmopara viticola, 144 h, spray 24 h after inoculation, tested at 40 ppm, read-out: Test B disease rating (100 = 100% disease control, 0 = no disease control)): 99%; pest or weed control at 40 ppm (Phytophthora infestans [1]; Phytophthora infestans, in Solanum lycopersicum, 144 h, read-out: Test C disease rating (100 = 100% disease control, 0 = no disease control)): 100%; pest or weed control at 40 ppm (Phytophthora infestans [2]; Phytophthora infestans, in Solanum lycopersicum, topical, 96 h, read-out: Test D disease rating (100 = 100% disease control, 0 = no disease control)): 99%; pest or weed control at 40 ppm ([3]; Blumeria graminis, topical, 168 h, spray the day before inoculation, tested at 40 ppm, read-out: Test E disease rating (100 = 100% disease control, 0 = no disease control)): 0%
Cc1cc(C(F)(F)F)nn1CC(=O)N1CCC(c2nc(C(=O)N(C)C3c4ccccc4CC3O)cs2)CC1 (racemic) [compound 200]							Test B disease rating (100 = 100% disease control, 0 = no disease control) (Plasmopara viticola; spray 24 h after inoculation, tested at 40 ppm): 39%; Test C disease rating (100 = 100% disease control, 0 = no disease control) (Phytophthora infestans [1]; [11]): 98%; Test D disease rating (100 = 100% disease control, 0 = no disease control) (Phytophthora infestans [2]; spray 17 h after inoculation, tested at 40 ppm): 98%; Test E disease rating (100 = 100% disease control, 0 = no disease control) [3, 11]: 0%
Cc1ccc(C)c(CC(=O)N2CCC(c3nc(C(=O)N(C)C(C#N)c4ccccc4)cs3)CC2)c1 (stereo not shown) [compound 102]	100%	99%	0%				
C=CC(c1ccccc1)N(C)C(=O)c1csc(C2CCN(C(=O)Cc3cc(C)ccc3C)CC2)n1 (stereo not shown) [compound 103]	100%	71%	79%				
C=CCC(c1ccccc1)N(C)C(=O)c1csc(C2CCN(C(=O)Cc3cc(C)ccc3C)CC2)n1 (stereo not shown) [compound 104]	100%	87%	0%				
Cc1ccc(C)c(CC(=O)N2CCC(c3nc(C(=O)N(C)[C@H](C)c4cccc5ccccc45)cs3)CC2)c1 [compound 105]	96%	100%	0%				
Cc1ccc(C)c(CC(=O)N2CCC(c3nc(C(=O)N(C)[C@H](C)c4ccc5ccccc5c4)cs3)CC2)c1 [compound 106]	0%	24%	0%				
CC[C@H](c1ccccc1)N(C)C(=O)c1csc(C2CCN(C(=O)Cc3cccc(Br)c3)CC2)n1 [compound 107]	99%	100%	0%				
CC[C@H](c1ccccc1)N(C)C(=O)c1csc(C2CCN(C(=O)Cc3cccc(C(F)(F)F)c3)CC2)n1 [compound 108]	99%	100%	0%				
COCC(c1ccccc1)N(C)C(=O)c1csc(C2CCN(C(=O)Cc3cc(C)ccc3C)CC2)n1 (stereo not shown) [compound 109]	99%	99%	94%				
COc1ccc(CCN(C)C(=O)c2csc(C3CCN(C(=O)Cc4cc(C)ccc4C)CC3)n2)cc1OC [compound 171]	0%		0%				Test D disease rating (100 = 100% disease control, 0 = no disease control) (Phytophthora infestans [2]; [6]): 24%
Cc1cc(C(F)(F)F)nn1CC(=O)N1CCC(n2nnc(C(=O)N(C)[C@@H]3CCCc4ccccc43)n2)CC1 [compound 256]							Test B disease rating (100 = 100% disease control, 0 = no disease control) (Plasmopara viticola; sprayed 24 h after inoculation, tested at 40 ppm (*)): 99; Test C disease rating (100 = 100% disease control, 0 = no disease control) (Phytophthora infestans [1]; sprayed the day before inoculation, tested at 40 ppm (*)): 100; Test D disease rating (100 = 100% disease control, 0 = no disease control) (Phytophthora infestans [2]; sprayed 17 h after inoculation, tested at 40 ppm (*)): 86
Cc1cc(Cl)nn1CC(=O)N1CCC(c2nc(C(=O)N(C)[C@@H]3CCCc4ccccc43)cs2)CC1 [compound 257]							Test B disease rating (100 = 100% disease control, 0 = no disease control) (Plasmopara viticola; [12]): 99; Test C disease rating (100 = 100% disease control, 0 = no disease control) (Phytophthora infestans [1]; [13]): 100; Test D disease rating (100 = 100% disease control, 0 = no disease control) (Phytophthora infestans [2]; [14]): 99
Cc1cc(Br)nn1CC(=O)N1CCC(c2nc(C(=O)N(C)[C@@H]3CCCc4ccccc43)cs2)CC1 [compound 258]							Test B disease rating (100 = 100% disease control, 0 = no disease control) (Plasmopara viticola; [12]): 100; Test C disease rating (100 = 100% disease control, 0 = no disease control) (Phytophthora infestans [1]; [13]): 100; Test D disease rating (100 = 100% disease control, 0 = no disease control) (Phytophthora infestans [2]; [14]): 99
C[C@H](NC(=O)c1csc(C2CCN(C(=O)Cc3ccccc3Cl)CC2)n1)c1ccccc1 [compound 260]				14	0		Test E disease rating (100 = 100% disease control, 0 = no disease control) [3, 10]: 0
Cc1cc(C(F)(F)F)nn1CC(=O)N1CCC(c2nc(C(=O)N[C@H](C)c3ccccc3)cs2)CC1 [compound 301]				99	99	80	
CCN(C(=O)c1csc(C2CCN(C(=O)Cn3nc(C(F)(F)F)cc3C)CC2)n1)[C@H](C)c1ccccc1 [compound 302]				86	95	26	
CCCN(C(=O)c1csc(C2CCN(C(=O)Cn3nc(C(F)(F)F)cc3C)CC2)n1)[C@H](C)c1ccccc1 [compound 303]				45	95	26	
C=CCN(C(=O)c1csc(C2CCN(C(=O)Cn3nc(C(F)(F)F)cc3C)CC2)n1)[C@H](C)c1ccccc1 [compound 304]				72	57	26	
Cc1cc(C(F)(F)F)nn1CC(=O)N1CCC(c2nc(C(=O)N[C@@H]3CCCc4ccccc43)cs2)CC1 [compound 305]				100	100	99	
CCN(C(=O)c1csc(C2CCN(C(=O)Cn3nc(C(F)(F)F)cc3C)CC2)n1)[C@@H]1CCCc2ccccc21 [compound 306]				96	100	83	
